PubChem BioAssay (NCI)
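GI50: concentration for 50% inhibition of growth. The concentration for full growth arrest is given as TGI.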

Key:
Assay in all cases: inhibition of tumour cell growth, NCI panel, 384-well format
[1] = test system: 786-0 renal
[2] = test system: A498 renal
[3] = test system: A549 NSCLC
[4] = test system: ACHN renal
[5] = test system: BT-549 breast
[6] = test system: CAKI-1 renal
[7] = test system: COLO 205 colon
[8] = test system: DU-145 prostate
[9] = test system: EKVX NSCLC
[10] = test system: HCC-2998 colon
[11] = test system: HCT-116 colon
[12] = test system: HCT-15 colon
[13] = test system: HL-60(TB) leukemia
[14] = test system: HOP-62 NSCLC
[15] = test system: HOP-92 NSCLC
[16] = test system: HS 578T breast
[17] = test system: HT29 colon
[18] = test system: IGROV1 ovarian
[19] = test system: KM12 colon
[20] = test system: LOX IMVI melanoma
[21] = test system: M14 melanoma
[22] = test system: MALME-3M melanoma
[23] = test system: MCF7 breast
[24] = test system: MDA-MB-231 breast
[25] = test system: MDA-MB-435 melanoma
[26] = test system: MDA-MB-468 breast
[27] = test system: MOLT-4 leukemia
[28] = test system: NCI-H226 lung
[29] = test system: NCI-H23 lung
[30] = test system: NCI-H322M lung
[31] = test system: NCI-H460 NSCLC
[32] = test system: NCI-H522 lung
[33] = test system: NCI/ADR-RES ovarian
[34] = test system: OVCAR-3 ovarian
[35] = test system: OVCAR-4 ovarian
[36] = test system: OVCAR-5 ovarian
[37] = test system: OVCAR-8 ovarian
[38] = test system: PC-3 prostate
[39] = test system: RPMI-8226 leukemia
[40] = test system: RXF 393 renal
[41] = test system: SF-268 CNS
[42] = test system: SF-295 CNS
[43] = test system: SF-539 CNS
[44] = test system: SK-MEL-28 melanoma
[45] = test system: SK-MEL-5 melanoma
[46] = test system: SK-OV-3 ovarian
[47] = test system: SN12C renal
[48] = test system: SNB-19 CNS
[49] = test system: SNB-75 CNS
[50] = test system: SR leukemia
[51] = test system: SW-620 colon
[52] = test system: T-47D breast
[53] = test system: TK-10 renal
[54] = test system: U251 glioblastoma
[55] = test system: UACC-257 melanoma
[56] = test system: UACC-62 melanoma
[57] = test system: UO-31 renal

**Q.** Which GI50 [1] does the source give for `Cc1ccc(C(=O)Nc2ccc(CN3CCN(C)CC3)c(C(F)(F)F)c2)cc1C#Cc1cnc2cccnn12` here?
**A.** The GI50 was 339 nM.

**Q.** What about the TGI [1] of the same compound?
**A.** The TGI was 1060 nM.

**Q.** And the GI50 [2]?
**A.** The GI50 was 390 nM.

**Q.** What about the TGI [2] of the same compound?
**A.** The TGI was 1310 nM.

**Q.** And the GI50 [3]?
**A.** Its GI50 is 361 nM.

**Q.** And the TGI [3]?
**A.** The TGI was 1250 nM.

**Q.** What about the GI50 [4] of the same compound?
**A.** Its GI50 is 210 nM.

**Q.** What about the TGI [4] of the same compound?
**A.** Its TGI is 685 nM.

**Q.** And the GI50 [5]?
**A.** The GI50 was 309 nM.

**Q.** And the TGI [5]?
**A.** Its TGI is 1000 nM.

**Q.** What about the GI50 [6] of the same compound?
**A.** Its GI50 is 210 nM.

**Q.** What about the TGI [6] of the same compound?
**A.** Its TGI is 504 nM.

**Q.** And the GI50 [7]?
**A.** The GI50 was 348 nM.

**Q.** What about the TGI [7] of the same compound?
**A.** The TGI was 1440 nM.

**Q.** And the GI50 [8]?
**A.** Its GI50 is 345 nM.

**Q.** And the TGI [8]?
**A.** The TGI was 1190 nM.

**Q.** What about the GI50 [9] of the same compound?
**A.** The GI50 was 574 nM.

**Q.** And the TGI [9]?
**A.** The TGI was 1780 nM.

**Q.** And the GI50 [10]?
**A.** Its GI50 is 500 nM.

**Q.** What about the TGI [10] of the same compound?
**A.** The TGI was 1290 nM.

**Q.** And the GI50 [11]?
**A.** The GI50 was 193 nM.

**Q.** And the TGI [11]?
**A.** The TGI was 541 nM.

**Q.** What about the GI50 [12] of the same compound?
**A.** The GI50 was 265 nM.

**Q.** What about the TGI [12] of the same compound?
**A.** The TGI was 1020 nM.

**Q.** And the GI50 [13]?
**A.** Its GI50 is 163 nM.

**Q.** What about the TGI [13] of the same compound?
**A.** The TGI was 320 nM.

**Q.** What about the GI50 [14] of the same compound?
**A.** Its GI50 is 403 nM.

**Q.** What about the TGI [14] of the same compound?
**A.** The TGI was 1380 nM.

**Q.** And the GI50 [15]?
**A.** Its GI50 is 249 nM.

**Q.** And the TGI [15]?
**A.** The TGI was 580 nM.

**Q.** And the GI50 [16]?
**A.** The GI50 was 107 nM.

**Q.** What about the TGI [16] of the same compound?
**A.** Its TGI is 290 nM.

**Q.** What about the GI50 [17] of the same compound?
**A.** Its GI50 is 221 nM.

**Q.** What about the TGI [17] of the same compound?
**A.** Its TGI is 607 nM.

**Q.** And the GI50 [18]?
**A.** Its GI50 is 180 nM.

**Q.** What about the TGI [18] of the same compound?
**A.** The TGI was 558 nM.

**Q.** And the GI50 [19]?
**A.** The GI50 was 46 nM.

**Q.** And the TGI [19]?
**A.** The TGI was 1380 nM.

**Q.** What about the GI50 [20] of the same compound?
**A.** Its GI50 is 153 nM.

**Q.** And the TGI [20]?
**A.** The TGI was 307 nM.

**Q.** And the GI50 [21]?
**A.** The GI50 was 167 nM.

**Q.** And the TGI [21]?
**A.** The TGI was 573 nM.

**Q.** What about the GI50 [22] of the same compound?
**A.** The GI50 was 104 nM.

**Q.** What about the TGI [22] of the same compound?
**A.** The TGI was 226 nM.

**Q.** What about the GI50 [23] of the same compound?
**A.** The GI50 was 560 nM.

**Q.** What about the TGI [23] of the same compound?
**A.** The TGI was 1830 nM.

**Q.** And the GI50 [24]?
**A.** The GI50 was 171 nM.

**Q.** What about the TGI [24] of the same compound?
**A.** The TGI was 399 nM.

**Q.** And the GI50 [25]?
**A.** The GI50 was 425 nM.

**Q.** And the TGI [25]?
**A.** Its TGI is 1340 nM.

**Q.** What about the GI50 [26] of the same compound?
**A.** The GI50 was 563 nM.

**Q.** What about the TGI [26] of the same compound?
**A.** The TGI was 1580 nM.

**Q.** And the GI50 [27]?
**A.** The GI50 was 203 nM.

**Q.** And the TGI [27]?
**A.** Its TGI is 619 nM.

**Q.** And the GI50 [28]?
**A.** The GI50 was 47.6 nM.

**Q.** And the TGI [28]?
**A.** The TGI was 240 nM.

**Q.** And the GI50 [29]?
**A.** Its GI50 is 246 nM.

**Q.** What about the TGI [29] of the same compound?
**A.** The TGI was 797 nM.

**Q.** And the GI50 [30]?
**A.** Its GI50 is 275 nM.

**Q.** What about the TGI [30] of the same compound?
**A.** The TGI was 692 nM.

**Q.** And the GI50 [31]?
**A.** The GI50 was 396 nM.

**Q.** What about the TGI [31] of the same compound?
**A.** The TGI was 1510 nM.

**Q.** What about the GI50 [32] of the same compound?
**A.** Its GI50 is 147 nM.

**Q.** And the TGI [32]?
**A.** The TGI was 582 nM.

**Q.** And the GI50 [33]?
**A.** The GI50 was 315 nM.

**Q.** And the TGI [33]?
**A.** Its TGI is 1000 nM.

**Q.** And the GI50 [34]?
**A.** The GI50 was 374 nM.

**Q.** And the TGI [34]?
**A.** Its TGI is 1370 nM.

**Q.** And the GI50 [35]?
**A.** The GI50 was 538 nM.

**Q.** And the TGI [35]?
**A.** The TGI was 1820 nM.

**Q.** And the GI50 [36]?
**A.** The GI50 was 516 nM.

**Q.** What about the TGI [36] of the same compound?
**A.** The TGI was 1680 nM.

**Q.** What about the GI50 [37] of the same compound?
**A.** Its GI50 is 344 nM.

**Q.** What about the TGI [37] of the same compound?
**A.** The TGI was 1220 nM.

**Q.** What about the GI50 [38] of the same compound?
**A.** The GI50 was 872 nM.

**Q.** And the TGI [38]?
**A.** Its TGI is 2070 nM.

**Q.** What about the GI50 [39] of the same compound?
**A.** The GI50 was 288 nM.

**Q.** And the TGI [39]?
**A.** Its TGI is 760 nM.

**Q.** What about the GI50 [40] of the same compound?
**A.** The GI50 was 284 nM.

**Q.** What about the TGI [40] of the same compound?
**A.** Its TGI is 621 nM.

**Q.** What about the GI50 [41] of the same compound?
**A.** The GI50 was 222 nM.

**Q.** And the TGI [41]?
**A.** The TGI was 844 nM.

**Q.** What about the GI50 [42] of the same compound?
**A.** The GI50 was 1080 nM.

**Q.** What about the TGI [42] of the same compound?
**A.** The TGI was 2270 nM.

**Q.** And the GI50 [43]?
**A.** The GI50 was 109 nM.

**Q.** What about the TGI [43] of the same compound?
**A.** The TGI was 245 nM.

**Q.** And the GI50 [44]?
**A.** The GI50 was 362 nM.

**Q.** And the TGI [44]?
**A.** The TGI was 1270 nM.

**Q.** What about the GI50 [45] of the same compound?
**A.** The GI50 was 170 nM.

**Q.** What about the TGI [45] of the same compound?
**A.** Its TGI is 373 nM.

**Q.** And the GI50 [46]?
**A.** The GI50 was 297 nM.

**Q.** And the TGI [46]?
**A.** The TGI was 1210 nM.

**Q.** And the GI50 [47]?
**A.** The GI50 was 324 nM.

**Q.** What about the TGI [47] of the same compound?
**A.** The TGI was 1100 nM.

**Q.** What about the GI50 [48] of the same compound?
**A.** Its GI50 is 1270 nM.

**Q.** And the TGI [48]?
**A.** The TGI was 2560 nM.

**Q.** And the GI50 [49]?
**A.** The GI50 was 217 nM.

**Q.** What about the TGI [49] of the same compound?
**A.** Its TGI is 790 nM.

**Q.** What about the GI50 [50] of the same compound?
**A.** Its GI50 is 521 nM.

**Q.** And the TGI [50]?
**A.** The TGI was 801 nM.

**Q.** What about the GI50 [51] of the same compound?
**A.** The GI50 was 399 nM.

**Q.** What about the TGI [51] of the same compound?
**A.** The TGI was 1480 nM.

**Q.** And the GI50 [52]?
**A.** Its GI50 is 608 nM.

**Q.** And the TGI [52]?
**A.** The TGI was 1810 nM.

**Q.** What about the GI50 [53] of the same compound?
**A.** Its GI50 is 737 nM.

**Q.** What about the TGI [53] of the same compound?
**A.** The TGI was 1970 nM.

**Q.** What about the GI50 [54] of the same compound?
**A.** The GI50 was 492 nM.

**Q.** What about the TGI [54] of the same compound?
**A.** The TGI was 1610 nM.

**Q.** And the GI50 [55]?
**A.** Its GI50 is 222 nM.

**Q.** What about the TGI [55] of the same compound?
**A.** The TGI was 419 nM.

**Q.** What about the GI50 [56] of the same compound?
**A.** Its GI50 is 144 nM.

**Q.** What about the TGI [56] of the same compound?
**A.** Its TGI is 745 nM.

**Q.** And the GI50 [57]?
**A.** Its GI50 is 392 nM.

**Q.** What about the TGI [57] of the same compound?
**A.** Its TGI is 1150 nM.
